Test results taken from patent US7504517B2, “Kv1.5 potassium channel inhibitors” (Wyeth, priority 2006, dated 2009).

What was measured:
Kv1.5 = target: T1, Kv1.5 (Homo sapiens, UniProt P22460); assay: Kv1.5 Patch Clamp EP; format: cell-based; settings: whole cell patch clamp; for inhibition at 1 µM: single point, Kv1.5 stably over expressed in HEK or LTK- cells; for IC50: HEK or LTK- cells, at least four concentrations, n=3
T1 construct: expressed in transfected cells; host or cells: HEK or LTK- cells
Description: The external solution is standard Tyrodes solution. […] Inhibition was measured at the end of the 1 second pulses and expressed relative to controls. Initial Kv1.5 inhibition is estimated by single point determinations done at 1 μM.

L-type calcium channels = assay: FLIPR L-Type Calcium Channel Assay; format: cell-based, murine; settings: HL-1 cells expressing endogenous L-type calcium channels; calcium influx after 20 mM KCl; read-out: L-type Ca^2+ IC50
Summary of the method: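 After a 15 min compound pre-incubation at 37 °C with 2.5 mM probenecid, L-type channels were opened by depolarising with 20 mM KCl (final). Fluorescence (488 nm excitation, 510–570 nm emission) was read for 5 min.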

HERG = HERG (Homo sapiens, UniProt Q12809); assay: HERG Patch Clamp EP; settings: for inhibition at 10 µM: human, HEK cells stably overexpressing HERG
Sequence of HERG (Q12809 whole entry): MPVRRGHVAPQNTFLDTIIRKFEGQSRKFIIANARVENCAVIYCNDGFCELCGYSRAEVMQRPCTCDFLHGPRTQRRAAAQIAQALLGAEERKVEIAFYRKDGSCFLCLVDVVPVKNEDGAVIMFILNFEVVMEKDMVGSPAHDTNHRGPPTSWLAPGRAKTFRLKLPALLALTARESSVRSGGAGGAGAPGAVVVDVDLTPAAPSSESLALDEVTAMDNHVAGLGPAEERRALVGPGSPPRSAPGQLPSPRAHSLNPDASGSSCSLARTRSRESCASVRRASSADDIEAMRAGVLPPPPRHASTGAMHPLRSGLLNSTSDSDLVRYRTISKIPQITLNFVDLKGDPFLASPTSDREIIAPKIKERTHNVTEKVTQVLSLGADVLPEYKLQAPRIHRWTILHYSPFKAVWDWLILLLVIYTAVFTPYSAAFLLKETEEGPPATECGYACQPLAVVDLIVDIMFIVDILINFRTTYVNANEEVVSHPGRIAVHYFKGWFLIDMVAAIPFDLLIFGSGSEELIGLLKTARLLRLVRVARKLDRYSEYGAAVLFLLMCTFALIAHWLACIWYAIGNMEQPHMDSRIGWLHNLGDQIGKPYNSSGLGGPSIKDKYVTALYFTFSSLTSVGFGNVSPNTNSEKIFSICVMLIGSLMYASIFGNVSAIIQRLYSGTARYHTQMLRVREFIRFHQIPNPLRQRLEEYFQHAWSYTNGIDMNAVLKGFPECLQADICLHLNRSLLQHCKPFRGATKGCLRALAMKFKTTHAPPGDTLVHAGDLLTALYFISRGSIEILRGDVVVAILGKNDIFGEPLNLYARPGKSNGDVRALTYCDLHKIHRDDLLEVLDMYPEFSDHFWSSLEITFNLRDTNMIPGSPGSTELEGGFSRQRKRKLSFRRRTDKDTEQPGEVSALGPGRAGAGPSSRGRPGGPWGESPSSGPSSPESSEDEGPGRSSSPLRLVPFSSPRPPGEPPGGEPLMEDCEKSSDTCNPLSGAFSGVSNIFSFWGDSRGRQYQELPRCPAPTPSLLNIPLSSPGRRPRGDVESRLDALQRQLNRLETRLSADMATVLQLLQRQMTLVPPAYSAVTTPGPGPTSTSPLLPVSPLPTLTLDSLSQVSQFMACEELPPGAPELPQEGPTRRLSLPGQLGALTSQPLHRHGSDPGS

T1 sequence (P22460 whole entry): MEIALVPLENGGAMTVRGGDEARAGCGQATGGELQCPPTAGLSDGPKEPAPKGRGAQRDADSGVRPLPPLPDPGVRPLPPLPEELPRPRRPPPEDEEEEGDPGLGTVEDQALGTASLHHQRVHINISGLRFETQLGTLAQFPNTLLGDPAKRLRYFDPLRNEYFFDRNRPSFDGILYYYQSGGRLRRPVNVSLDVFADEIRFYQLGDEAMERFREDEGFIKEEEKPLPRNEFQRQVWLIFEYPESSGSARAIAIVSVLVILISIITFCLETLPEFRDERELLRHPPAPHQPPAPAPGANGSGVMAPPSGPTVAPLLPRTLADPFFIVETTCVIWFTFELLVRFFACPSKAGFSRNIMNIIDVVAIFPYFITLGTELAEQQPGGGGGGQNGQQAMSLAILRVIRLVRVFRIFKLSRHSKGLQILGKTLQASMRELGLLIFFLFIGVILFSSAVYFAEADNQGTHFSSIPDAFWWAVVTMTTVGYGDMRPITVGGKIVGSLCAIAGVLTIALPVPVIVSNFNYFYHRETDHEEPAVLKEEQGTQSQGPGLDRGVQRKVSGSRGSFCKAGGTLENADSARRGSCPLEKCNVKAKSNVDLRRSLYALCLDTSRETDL

SMILES | inhibition at 1 µM (Kv1.5) [%] | IC50 (L-type calcium channels) [µM] | IC50 (Kv1.5) [µM] | inhibition at 10 µM (HERG) [%] | IC50 (HERG) [µM]
CC(C)(C)c1ccc(C2CN(NS(C)(=O)=O)C(=O)N2CCCc2ccccc2)cc1 (stereo not shown) [Compound 47, 1-(Methylsulfonylamino)-3-(3-phenylpropyl)-4-[4-(tert-butyl)phenyl]-2-imidazolidinone] | 73 | 26 | – | 65 | –
COc1ccc(CCCN2C(=O)N(NS(C)(=O)=O)CC2c2ccc(OC)cc2)cc1 (stereo not shown) [Compound 49, 1-(Methylsulfonylamino)-3-[3-(4-methoxyphenyl)propyl]-4-[(4-methoxy)-phenyl]-2-imidazolidinone] | 76 | 23 | 0.466 | 25 | 11.4
COc1ccc(CCN2C(=O)N(NS(=O)(=O)CC(=O)NC3CC3)CC2c2ccc(C3CC3)cc2)cc1 (stereo not shown) [Compound 51, 1-[[2-(Cyclopropylamino)-2-oxoethyl]sulfonylamino]-3-[2-(4-methoxyphenyl)ethyl]-4-(4-cyclopropylphenyl)-2-imidazolidinone] | 87 | 21 | – | 20 | –
COc1ccc(CCN2C(=O)N(NS(=O)(=O)CC(N)=O)CC2c2ccc(C3CC3)cc2)cc1 (stereo not shown) [Compound 52, 1-[(2-Amino-2-oxoethyl)sulfonylamino]-3-[2-(4-methoxyphenyl)ethyl]-4-(4-cyclopropylphenyl)-2-imidazolidinone] | 80 | 16 | – | 29 | –
COc1ccc(CCN2C(=O)N(NS(=O)(=O)CC(=O)N(C)C)CC2c2ccc(C3CC3)cc2)cc1 (stereo not shown) [Compound 54, 1-[[2-(Dimethylamino)-2-oxoethyl]sulfonylamino]-3-[2-(4-methoxyphenyl)-ethyl]-4-(4-cyclopropylphenyl)-2-imidazolidinone] | 80 | 30 | – | 46 | –
COc1ccc(CCN2C(=O)N(NS(=O)(=O)CC(=O)NCC3CC3)CC2c2ccc(OC)cc2)cc1 (stereo not shown) [Compound 57, 1-[[2-[(Cyclopropylmethyl)amino]-2-oxoethyl]sulfonylamino]-3-[2-(4-methoxy-phenyl)ethyl]-4-(4-methoxyphenyl)-2-imidazolidinone] | 66 | 30 | 0.631 | 12 | 12.4
COc1ccc(CCN2C(=O)N(NS(=O)(=O)CS(C)(=O)=O)CC2c2ccc(C3CC3)cc2)cc1 (stereo not shown) [Compound 61, 1-[(Methylsulfonylmethyl)sulfonyl]amino-3-[2-(4-methoxyphenyl)ethyl]-4-(4-Cyclopropylphenyl)-2-imidazolidinone] | 85 | 25 | – | 28 | –
COc1ccc(CCN2C(=O)N(NS(=O)(=O)Cc3cccnc3)CC2c2ccc(C3CC3)cc2)cc1 (stereo not shown) [Compound 64, 1-[(Pyridin-3-yl)methanesulfonyl]amino-3-[(4-methoxyphenyl)ethyl]-4-(4-cyclopropylphenyl)-imidazolidin-2-one] | 96 | 14 | – | 55 | –
COc1ccc(CCN2C(=O)N(NS(=O)(=O)Cc3cccnc3)CC2c2ccc(C)cc2)cc1 (stereo not shown) [Compound 65, 1-[(Pyridin-3-yl)methylsulfonyl]amino-3-[(4-methoxyphenyl)ethyl]-4-(4-methylphenyl)-2-imidazolidinone] | 88 | 31 | – | 38 | –
COc1ccc(CCN2C(=O)N(NS(=O)(=O)Cc3cccnc3)CC2c2ccc(OC)cc2)cc1 (stereo not shown) [Compound 66, 1-[(Pyridin-3-yl)methylsulfonyl]amino-3-[2-(4-methoxyphenyl)ethyl]-4-(4-methoxyphenyl)-2-imidazolidinone] | 86 | 30 | 0.257 | – | 12.6
COCCN(N1CC(c2ccc(C3CC3)cc2)N(CCc2ccc(OC)cc2)C1=O)S(C)(=O)=O (stereo not shown) [Compound 68, 1-[(N-Methoxyethyl-N-methylsulfonyl)amino]-3-[2-(4-methoxyphenyl)ethyl]-4-(4-cyclopropylphenyl)-2-imidazolidinone] | 60 | 16 | – | 48 | –
COc1ccc(CCN2C(=O)N(NC(C)=O)CC2Cc2ccc(C(C)(C)C)cc2)cc1 (stereo not shown) [Compound 71, 1-(Acetylamino)-3-[2-(4-methoxyphenyl)ethyl]-4-[(4-tert-butyl)benzyl]-2-imidazolidinone] | 94 | 13 | – | 30 | –
COc1ccc(CCN2C(=O)N(NC(=O)c3ccno3)CC2c2ccc(C(C)(C)C)cc2)cc1 (stereo not shown) [Compound 79, 1-(Isoxazol-5-ylcarbonylamino)-3-[2-(4-methoxyphenyl)-ethyl]-4-[4-(tert-butyl)phenyl]-2-imidazolidinone] | 68 | 11 | – | 70 | –
COc1ccc(CCN2C(=O)N(NC(=O)CS(=O)(=O)N(C)C)CC2c2ccc(C3CC3)cc2)cc1 (stereo not shown) [Compound 82, N-(4-(4-cyclopropylphenyl)-3-(4-methoxyphenethyl)-2-oxoimidazolidin-1-yl)-2-(N,N-dimethylsulfamoyl)acetamide] | 72 | 30 | – | 42 | –

Compounds with a lower IC50 (L-type calcium channels), results first:

inhibition at 1 µM (Kv1.5) [%] | IC50 (L-type calcium channels) [µM] | IC50 (Kv1.5) [µM] | SMILES | inhibition at 10 µM (HERG) [%] | IC50 (HERG) [µM]
77 | 10.6 | 0.453 | COCCN(CCOC)C(=O)CS(=O)(=O)NN1CC(c2ccc(C3CC3)cc2)N(CCc2ccc(OC)cc2)C1=O (stereo not shown) [Compound 60, 1-[[2-[(Bis(methoxyethyl)amino)]-2-oxoethyl]sulfonylamino]-3-[2-(4-methoxy-phenyl)ethyl]-4-(4-cyclopropylphenyl)-2-imidazolidinone] | 44 | 7.4
96 | 9 | 0.231 | COc1ccc(CCCN2C(=O)N(NS(C)(=O)=O)CC2c2ccc(C3CC3)cc2)cc1 (stereo not shown) [Compound 48, 1-(Methylsulfonylamino)-3-[3-(4-methoxyphenyl)propyl]-4-[(4-cyclopropyl)-phenyl]-2-imidazolidinone] | 70 | 3.6
90 | 8 | – | COc1ccc(CCN2C(=O)N(N(C)S(=O)(=O)Cc3ccccc3)CC2c2ccc(C)c(C)c2)cc1 (stereo not shown) [Compound 67, 1-[(N-methyl-N-benzylsulfonyl)amino]-3-[2-(4-methoxy-phenyl)ethyl]-4-(3,4-dimethylphenyl)-2-imidazolidinone] | 22 | –
62 | 7 | 0.658 | COc1ccc(CCN2C(=O)N(NC(=O)C3CC3)CC2c2ccc(C(C)(C)C)cc2)cc1 (stereo not shown) [Compound 73, 1-Cyclopropanecarbonylamino-4-[4-(tert-butyl)phenyl]-3-[2-(4-methoxy-phenyl)ethyl]-2-imidazolidinone] | 56 | –
95 | 6.3 | – | COc1ccc(CCN2C(=O)N(NS(=O)(=O)Cc3ccccc3)CC2c2ccc(OC)cc2)cc1 (stereo not shown) [Compound 63, 1-[(Phenylmethyl)sulfonylamino]-3-[2-(4-methoxyphenyl)ethyl]-4-(4-methoxyphenyl)-2-imidazolidinone] | 44 | –
96 | 2.8 | – | COc1ccc(CCN2C(=O)N(NCc3ccc(C#N)cc3)CC2c2ccc(C)c(C)c2)cc1 (stereo not shown) [Compound 83, 1-[(4-Cyanophenylmethyl)amino]-3-[2-(4-methoxyphenyl)ethyl]-4-(3,4-dimethylphenyl)-2-imidazolidinone] | 97 | –
